Key:
Assay type in all cases: cell-based
human TLR7 = molecular target: T1, human TLR7 (Homo sapiens, UniProt Q9NYK1); test: TLR7 inhibition reporter assay (HEK-Blue cells, SEAP reporter, gardiquimod stimulation); details: HEK-Blue cells overexpressing human TLR7, SEAP reporter, gardiquimod 7.5 μM; read-out: TLR7 IC50
T1 construct: host or cells: HEK-Blue cells
T1 sequence (Q9NYK1 27-1049): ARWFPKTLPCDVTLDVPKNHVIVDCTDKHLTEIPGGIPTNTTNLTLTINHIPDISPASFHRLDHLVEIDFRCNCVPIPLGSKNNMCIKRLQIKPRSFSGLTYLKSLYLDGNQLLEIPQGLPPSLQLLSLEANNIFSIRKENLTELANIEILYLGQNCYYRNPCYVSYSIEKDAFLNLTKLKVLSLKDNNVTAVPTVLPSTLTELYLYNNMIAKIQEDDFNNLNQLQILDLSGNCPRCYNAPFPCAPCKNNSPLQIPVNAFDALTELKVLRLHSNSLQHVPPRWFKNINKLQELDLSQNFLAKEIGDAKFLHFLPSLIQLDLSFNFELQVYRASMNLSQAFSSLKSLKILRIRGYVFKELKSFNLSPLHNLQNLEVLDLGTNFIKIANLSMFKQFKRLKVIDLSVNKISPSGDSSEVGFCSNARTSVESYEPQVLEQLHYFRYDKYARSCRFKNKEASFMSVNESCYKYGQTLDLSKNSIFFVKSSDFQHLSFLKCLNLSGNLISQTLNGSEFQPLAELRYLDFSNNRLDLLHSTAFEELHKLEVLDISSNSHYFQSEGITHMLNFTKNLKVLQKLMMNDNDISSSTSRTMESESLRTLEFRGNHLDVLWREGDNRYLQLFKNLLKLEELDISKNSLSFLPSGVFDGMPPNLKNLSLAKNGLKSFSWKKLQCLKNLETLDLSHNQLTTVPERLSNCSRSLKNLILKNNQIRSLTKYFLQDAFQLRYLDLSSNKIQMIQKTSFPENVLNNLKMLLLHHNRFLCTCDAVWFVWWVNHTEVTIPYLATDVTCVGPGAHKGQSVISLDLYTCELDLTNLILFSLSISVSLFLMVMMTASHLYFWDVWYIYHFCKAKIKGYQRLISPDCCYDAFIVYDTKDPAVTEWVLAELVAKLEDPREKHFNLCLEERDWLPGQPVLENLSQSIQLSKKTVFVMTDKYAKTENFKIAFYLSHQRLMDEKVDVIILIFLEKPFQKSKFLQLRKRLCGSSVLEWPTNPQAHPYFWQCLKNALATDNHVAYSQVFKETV
How it was run: (§1)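 Dose–response from 0.05 nM to 50 μM was run in HEK-Blue human TLR7, TLR8 and TLR9 reporter cells. After 30 min at room temperature with compound, ligand was added (TLR7 gardiquimod 7.5 μM; TLR8 R848 15.9 μM; TLR9 ODN2006 5 nM) and SEAP measured next day, at 22 h.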

human TLR8 = molecular target: T2, human TLR8 (Homo sapiens, UniProt Q9NR97); test: TLR8 inhibition reporter assay (HEK-Blue cells, SEAP reporter, R848 stimulation); details: HEK-Blue cells overexpressing human TLR8, SEAP reporter, R848 15.9 μM; read-out: TLR8 IC50
T2 construct: host or cells: HEK-Blue cells
T2 sequence (Q9NR97 27-1041): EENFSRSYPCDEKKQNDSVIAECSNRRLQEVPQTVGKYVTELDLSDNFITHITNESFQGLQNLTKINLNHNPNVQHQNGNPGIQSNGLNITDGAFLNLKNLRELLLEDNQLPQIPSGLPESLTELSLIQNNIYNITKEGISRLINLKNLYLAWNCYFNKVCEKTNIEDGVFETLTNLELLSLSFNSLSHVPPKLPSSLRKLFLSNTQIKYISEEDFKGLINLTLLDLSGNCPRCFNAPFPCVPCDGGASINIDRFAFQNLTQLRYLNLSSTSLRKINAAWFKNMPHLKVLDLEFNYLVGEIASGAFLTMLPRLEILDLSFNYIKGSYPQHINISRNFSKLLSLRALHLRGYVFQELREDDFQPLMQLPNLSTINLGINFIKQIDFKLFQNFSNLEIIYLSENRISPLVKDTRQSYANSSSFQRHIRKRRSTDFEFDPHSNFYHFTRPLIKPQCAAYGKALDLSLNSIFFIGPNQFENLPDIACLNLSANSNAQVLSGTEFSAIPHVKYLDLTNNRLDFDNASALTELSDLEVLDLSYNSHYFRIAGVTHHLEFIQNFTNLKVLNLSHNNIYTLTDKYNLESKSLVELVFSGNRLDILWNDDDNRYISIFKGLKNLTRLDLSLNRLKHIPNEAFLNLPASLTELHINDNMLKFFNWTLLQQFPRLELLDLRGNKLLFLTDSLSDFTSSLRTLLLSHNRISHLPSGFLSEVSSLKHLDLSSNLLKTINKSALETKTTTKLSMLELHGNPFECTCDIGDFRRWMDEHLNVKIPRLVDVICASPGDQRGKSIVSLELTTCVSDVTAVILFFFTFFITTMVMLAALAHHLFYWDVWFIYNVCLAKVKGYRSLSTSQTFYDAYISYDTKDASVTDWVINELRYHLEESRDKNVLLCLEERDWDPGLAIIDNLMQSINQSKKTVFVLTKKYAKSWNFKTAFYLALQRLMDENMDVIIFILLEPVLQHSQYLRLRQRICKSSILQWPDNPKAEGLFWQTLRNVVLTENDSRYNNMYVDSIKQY
How it was run: as §1

human TLR9 = molecular target: T3, human TLR9 (Homo sapiens, UniProt Q9NR96); test: TLR9 inhibition reporter assay (HEK-Blue cells, SEAP reporter, ODN2006 stimulation); details: HEK-Blue cells overexpressing human TLR9, SEAP reporter, ODN2006 5 nM
T3 construct: host or cells: HEK-Blue cells
T3 sequence (Q9NR96 26-1032): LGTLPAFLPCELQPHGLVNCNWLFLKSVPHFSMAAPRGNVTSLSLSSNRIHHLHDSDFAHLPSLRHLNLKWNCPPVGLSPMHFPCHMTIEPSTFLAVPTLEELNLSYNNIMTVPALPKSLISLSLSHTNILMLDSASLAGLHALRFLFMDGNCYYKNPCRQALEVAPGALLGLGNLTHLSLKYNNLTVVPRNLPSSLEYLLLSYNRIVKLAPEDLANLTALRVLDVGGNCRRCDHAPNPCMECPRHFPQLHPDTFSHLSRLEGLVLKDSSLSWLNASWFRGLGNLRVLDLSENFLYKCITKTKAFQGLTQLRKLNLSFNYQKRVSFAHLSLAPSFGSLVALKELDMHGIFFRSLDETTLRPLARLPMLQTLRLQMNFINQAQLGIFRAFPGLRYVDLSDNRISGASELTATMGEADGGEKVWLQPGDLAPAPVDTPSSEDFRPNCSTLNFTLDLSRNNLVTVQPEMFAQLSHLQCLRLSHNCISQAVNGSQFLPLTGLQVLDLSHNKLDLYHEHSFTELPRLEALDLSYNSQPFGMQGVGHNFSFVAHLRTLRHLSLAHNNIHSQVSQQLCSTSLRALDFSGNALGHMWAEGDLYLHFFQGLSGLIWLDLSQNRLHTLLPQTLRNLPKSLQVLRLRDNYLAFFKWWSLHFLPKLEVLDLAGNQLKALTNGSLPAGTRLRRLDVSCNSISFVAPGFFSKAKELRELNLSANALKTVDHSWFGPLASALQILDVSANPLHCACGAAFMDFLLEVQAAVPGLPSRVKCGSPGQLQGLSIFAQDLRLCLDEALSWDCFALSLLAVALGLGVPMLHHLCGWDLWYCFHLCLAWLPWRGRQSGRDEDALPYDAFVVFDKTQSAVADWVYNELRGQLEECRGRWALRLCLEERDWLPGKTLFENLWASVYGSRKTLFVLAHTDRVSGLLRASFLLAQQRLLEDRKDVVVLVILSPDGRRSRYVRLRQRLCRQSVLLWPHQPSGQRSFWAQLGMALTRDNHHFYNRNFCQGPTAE
How it was run: as §1

SMILES	IC50 (human TLR7) [nM]	IC50 (human TLR8) [nM]	IC50 (human TLR9) [nM]
CC(C)c1c(-c2cn(C)c3ncccc23)[nH]c2sc(C3CCC(NC45CC(C4)C5)CC3)nc12 (single isomer, unassigned) [Example 176, N-(4-(6-isopropyl-5-(1-methyl-1H-pyrrolo[2,3-b]pyridin-3-yl)-4H-pyrrolo[3,2-d]thiazol-2-yl)cyclohexyl)bicyclo[1.1.1]pentan-1-amine]	23.3	23.7	9580
CC(C)c1c(-c2cn(C)c3ncccc23)[nH]c2sc(C3CCC(NC45CC(C4)C5)CC3)nc12 (single isomer, unassigned) [Example 177, N-(4-(6-isopropyl-5-(1-methyl-1H-pyrrolo[2,3-b]pyridin-3-yl)-4H-pyrrolo[3,2-d]thiazol-2-yl)cyclohexyl)bicyclo[1.1.1]pentan-1-amine]	3.23	5.63	9790
CC(C)c1c(-c2cn(C)c3ncccc23)[nH]c2sc(C3CCC(NC4COC4)CC3)nc12 (single isomer, unassigned) [Example 178, N-(4-(6-isopropyl-5-(1-methyl-1H-pyrrolo[2,3-b]pyridin-3-yl)-4H-pyrrolo[3,2-d]thiazol-2-yl)cyclohexyl)oxetan-3-amine]	1.69	2.44	6710
CC(C)c1c(-c2cn(C)c3ncccc23)[nH]c2sc(C3CCC(NC4COC4)CC3)nc12 (single isomer, unassigned) [Example 179, N-(4-(6-isopropyl-5-(1-methyl-1H-pyrrolo[2,3-b]pyridin-3-yl)-4H-pyrrolo[3,2-d]thiazol-2-yl)cyclohexyl)oxetan-3-amine]	9.72	13.5	7260
CC(C)c1c(-c2cn(C)c3ncccc23)[nH]c2sc(C3CCC(N4CC5(COC5)C4)CC3)nc12 (single isomer, unassigned) [Example 180, 6-(4-(6-isopropyl-5-(1-methyl-1H-pyrrolo[2,3-b]pyridin-3-yl)-4H-pyrrolo[3,2-d]thiazol-2-yl)cyclohexyl)-2-oxa-6-azaspiro[3.3]heptane]	3.54	3.7	5280
CC(C)c1c(-c2cn(C)c3ncccc23)[nH]c2sc(C3CCC(N4CC5(COC5)C4)CC3)nc12 (single isomer, unassigned) [Example 181, 6-(4-(6-isopropyl-5-(1-methyl-1H-pyrrolo[2,3-b]pyridin-3-yl)-4H-pyrrolo[3,2-d]thiazol-2-yl)cyclohexyl)-2-oxa-6-azaspiro[3.3]heptane]	9.92	36	5660
CC(C)c1c(-c2cn(C)c3ncccc23)[nH]c2sc(C3CCC(NCC(C)(C)O)CC3)nc12 (single isomer, unassigned) [Example 183, 1-((4-(6-isopropyl-5-(1-methyl-1H-pyrrolo[2,3-b]pyridin-3-yl)-4H-pyrrolo[3,2-d]thiazol-2-yl)cyclohexyl)amino)-2-methylpropan-2-ol]	8.89	9.41	6790

Continued by falling IC50 (human TLR7), values first:

IC50 (human TLR7) [nM]	IC50 (human TLR8) [nM]	IC50 (human TLR9) [nM]	SMILES
8.56	7.58	7790	CC(C)c1c(-c2cn(C)c3ncccc23)[nH]c2sc(C3CCC(NCC4(C)COC4)CC3)nc12 (single isomer, unassigned) [Example 173, 4-(6-isopropyl-5-(1-methyl-1H-pyrrolo[2,3-b]pyridin-3-yl)-4H-pyrrolo[3,2-d]thiazol-2-yl)-N-((3-methyloxetan-3-yl)methyl)cyclohexan-1-amine]
3.76	6.23	6250	CCN(C)C1CCC(c2nc3c(C(C)C)c(-c4cn(C)c5ncccc45)[nH]c3s2)CC1 (single isomer, unassigned) [Example 175, N-ethyl-4-(6-isopropyl-5-(1-methyl-1H-pyrrolo[2,3-b]pyridin-3-yl)-4H-pyrrolo[3,2-d]thiazol-2-yl)-N-methylcyclohexan-1-amine]
1.84	3.13	16000	CCN(C)C1CCC(c2nc3c(C(C)C)c(-c4cn(C)c5ncccc45)[nH]c3s2)CC1 (single isomer, unassigned) [Example 174, N-ethyl-4-(6-isopropyl-5-(1-methyl-1H-pyrrolo[2,3-b]pyridin-3-yl)-4H-pyrrolo[3,2-d]thiazol-2-yl)-N-methylcyclohexan-1-amine]
1.74	0.76	13500	CC(C)c1c(-c2cn(C)c3ncccc23)[nH]c2sc(C3CCC(NCC(C)(C)O)CC3)nc12 (single isomer, unassigned) [Example 182, 1-((4-(6-isopropyl-5-(1-methyl-1H-pyrrolo[2,3-b]pyridin-3-yl)-4H-pyrrolo[3,2-d]thiazol-2-yl)cyclohexyl)amino)-2-methylpropan-2-ol]

— patent publication US20230139171A1 (SITA Information Networking Computing UK Limited, priority 2019, published 2023)
